From PubChem BioAssay (NCI)
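All cell lines were grown in 96-well plates and treated with compound for 48 hours. Here, GI50 denotes the concentration required for 50% inhibition of growth. The concentration for full growth arrest is given as TGI.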

Tests used:
Assay in all cases: DTP human tumour cell line panel, 48 h
[1] = tested on: SNB-75 CNS
[2] = tested on: BT-549 breast
[3] = tested on: T-47D breast
[4] = tested on: A549 NSCLC
[5] = tested on: M14 melanoma
[6] = tested on: HCT-15 colon
[7] = tested on: UACC-257 melanoma
[8] = tested on: NCI-H522 lung
[9] = tested on: LOX IMVI melanoma
[10] = tested on: NCI-H23 lung
[11] = tested on: MDA-MB-231 breast
[12] = tested on: OVCAR-5 ovarian
[13] = tested on: CCRF-CEM leukemia
[14] = tested on: SW-620 colon
[15] = tested on: HCT-116 colon
[16] = tested on: HOP-62 NSCLC
[17] = tested on: SK-MEL-28 melanoma
[18] = tested on: RXF 393 renal
[19] = tested on: ACHN renal
[20] = tested on: K-562 leukemia
[21] = tested on: HCC-2998 colon
[22] = tested on: SK-OV-3 ovarian
[23] = tested on: MOLT-4 leukemia
[24] = tested on: SF-539 CNS
[25] = tested on: PC-3 prostate
[26] = tested on: RPMI-8226 leukemia
[27] = tested on: CAKI-1 renal
[28] = tested on: EKVX NSCLC
[29] = tested on: DU-145 prostate
[30] = tested on: 786-0 renal
[31] = tested on: NCI-H226 lung
[32] = tested on: SF-268 CNS
[33] = tested on: SK-MEL-5 melanoma
[34] = tested on: HOP-92 NSCLC
[35] = tested on: SNB-19 CNS
[36] = tested on: MALME-3M melanoma
[37] = tested on: NCI-H460 lung
[38] = tested on: KM12 colon
[39] = tested on: U251 CNS
[40] = tested on: HS 578T breast
[41] = tested on: IGROV1 ovarian
[42] = tested on: HT29 colon
[43] = tested on: UACC-62 melanoma
[44] = tested on: SF-295 CNS
[45] = tested on: UO-31 renal
[46] = tested on: OVCAR-4 ovarian
[47] = tested on: A498 renal
[48] = tested on: TK-10 renal
[49] = tested on: OVCAR-8 ovarian
[50] = tested on: MDA-MB-435
[51] = tested on: MCF7 breast
[52] = tested on: OVCAR-3 ovarian
[53] = tested on: HL-60(TB) leukemia
[54] = tested on: SR leukemia
[55] = tested on: SN12C renal
[56] = tested on: NCI/ADR-RES ovarian
[57] = tested on: SK-MEL-2 melanoma
[58] = tested on: COLO 205 colon

With `NC(=O)c1ncn(CC2(COC(=O)c3ccccc3)CCC2)n1` the GI50 [1] was 9.86 µM, the TGI [1] was 92.5 µM and the GI50 [2] was 82.1 µM.

`COc1ccc(OC)c2c1C=C[C@H](C1(C)SCCS1)C2C(C)=O` (stereo partly specified) was tested, and the TGI [3] was over 100 µM, the TGI [4] was over 100 µM and the TGI [5] was over 100 µM. For the same molecule, the TGI [6] was over 100 µM, the TGI [7] was over 100 µM and the TGI [8] was 41.5 µM. For the same molecule, the TGI [9] was 81.8 µM, the TGI [10] was 71.6 µM and the TGI [11] was over 100 µM. For the same molecule, the TGI [12] was 65.6 µM, the TGI [13] was over 100 µM and the TGI [14] was over 100 µM. The TGI [15] was 65.3 µM, the TGI [16] was over 100 µM and the TGI [17] was over 100 µM. The TGI [18] was 92.3 µM, the TGI [19] was over 100 µM and the TGI [20] was over 100 µM. It also gave a TGI [21] of over 100 µM, a TGI [22] of 70.9 µM and a TGI [23] of 60.6 µM. It also gave a TGI [24] of 48.2 µM, a TGI [25] of over 100 µM and a TGI [26] of 58.6 µM. The TGI [27] was 90 µM, the TGI [28] was over 100 µM and the TGI [29] was 97.9 µM. The TGI [30] was over 100 µM, the TGI [31] was 63.4 µM and the TGI [32] was over 100 µM. The TGI [33] was 47.1 µM, the TGI [34] was over 100 µM and the TGI [35] was 81.1 µM. The TGI [36] was 89.8 µM, the TGI [37] was 76.5 µM and the TGI [38] was 99.5 µM. It also gave a TGI [39] of 73.2 µM, a TGI [40] of 45.6 µM and a TGI [41] of over 100 µM. The TGI [42] was 33.8 µM, the TGI [43] was over 100 µM and the TGI [44] was 65.5 µM. The TGI [45] was 59.7 µM, the TGI [46] was over 100 µM and the TGI [47] was 78.2 µM. For the same molecule, the TGI [48] was over 100 µM, the TGI [49] was over 100 µM and the TGI [50] was over 100 µM. The TGI [51] was over 100 µM, the TGI [52] was 61.5 µM and the TGI [53] was 41.3 µM. It also gave a TGI [54] of 59.2 µM, a TGI [55] of over 100 µM and a TGI [56] of over 100 µM.

Work on `Nc1cc(N)c2nc(-c3ccccc3)c(NCCc3ccc(Cl)c(Cl)c3)nc2c1` yielded a GI50 [3] of 1800 nM, a TGI [3] of 5.94 µM and a GI50 [4] of 12.6 µM. The TGI [4] was 33.1 µM, the GI50 [6] was 4.64 µM and the TGI [6] was 20 µM. The GI50 [7] was 2060 nM, the TGI [7] was 4.52 µM and the GI50 [8] was 2110 nM. The TGI [8] was 4.98 µM, the GI50 [10] was 2810 nM and the TGI [10] was 13.3 µM. The GI50 [11] was 1300 nM, the TGI [11] was 3.89 µM and the GI50 [1] was 6.18 µM. It also gave a TGI [1] of 33.4 µM, a GI50 [12] of 1810 nM and a TGI [12] of 4.75 µM. For the same molecule, the GI50 [13] was 2770 nM, the TGI [13] was 12.3 µM and the GI50 [14] was 1640 nM. For the same molecule, the TGI [14] was 2.99 µM, the GI50 [16] was 3.92 µM and the TGI [16] was 39.8 µM. The GI50 [17] was 2130 nM, the TGI [17] was 5.88 µM and the GI50 [19] was 3.31 µM. The TGI [19] was 12.4 µM, the GI50 [20] was 1870 nM and the TGI [20] was 5.29 µM. The GI50 [21] was 5.78 µM, the TGI [21] was 19.7 µM and the GI50 [22] was 12.3 µM. It also gave a TGI [22] of 24.7 µM, a GI50 [23] of 1140 nM and a TGI [23] of 9.32 µM. For the same molecule, the GI50 [24] was 2220 nM, the TGI [24] was 10.9 µM and the GI50 [25] was 1010 nM. It also gave a TGI [25] of 4.29 µM, a GI50 [26] of 924 nM and a TGI [26] of 2.91 µM. The GI50 [28] was 3.16 µM, the TGI [28] was 16.2 µM and the GI50 [29] was 1630 nM. For the same molecule, the TGI [29] was 3.63 µM, the GI50 [30] was 3.13 µM and the TGI [30] was 21.1 µM. It also gave a GI50 [31] of 16.5 µM, a TGI [31] of 33.3 µM and a GI50 [32] of 2850 nM. For the same molecule, the TGI [32] was 12.9 µM, the GI50 [33] was 2320 nM and the TGI [33] was 7.52 µM. It also gave a GI50 [2] of 1.56 µM, a TGI [2] of 13.8 µM and a GI50 [36] of 1850 nM. The TGI [36] was 4.5 µM, the GI50 [37] was 3.21 µM and the TGI [37] was 14.1 µM. For the same molecule, the GI50 [38] was 2630 nM, the TGI [38] was 10.5 µM and the GI50 [39] was 2030 nM. For the same molecule, the TGI [39] was 5.32 µM, the GI50 [41] was 3.38 µM and the TGI [41] was 15.9 µM. For the same molecule, the GI50 [42] was 3.4 µM, the TGI [42] was 13.2 µM and the GI50 [43] was 2500 nM. It also gave a TGI [43] of 7.97 µM, a GI50 [45] of 1930 nM and a TGI [45] of 3.97 µM. It also gave a GI50 [47] of 11.3 µM, a TGI [47] of 23.4 µM and a GI50 [48] of 4.78 µM. For the same molecule, the TGI [48] was 17.5 µM, the GI50 [49] was 2410 nM and the TGI [49] was 6.02 µM. For the same molecule, the GI50 [57] was 10.3 µM, the TGI [57] was 22.4 µM and the GI50 [53] was 2070 nM. It also gave a TGI [53] of 5.27 µM, a GI50 [54] of 1660 nM and a TGI [54] of 7.61 µM. For the same molecule, the GI50 [55] was 1750 nM, the TGI [55] was 3.37 µM and the GI50 [56] was 3.62 µM. The TGI [56] was 18.8 µM.

In the case of `S=c1oc(CCCCCCCCc2nn(CNc3ccccc3)c(=S)o2)nn1CNc1ccccc1`, the TGI [4] is reported as over 100 µM, the TGI [5] is reported as over 100 µM and the TGI [6] is reported as over 100 µM. The TGI [7] was over 100 µM, the TGI [8] was over 100 µM and the TGI [58] was over 100 µM. It also gave a TGI [10] of over 100 µM, a TGI [11] of over 100 µM and a TGI [1] of over 100 µM. The TGI [12] was over 100 µM, the TGI [14] was over 100 µM and the TGI [15] was over 100 µM. The TGI [16] was over 100 µM, the TGI [17] was over 100 µM and the TGI [19] was over 100 µM. For the same molecule, the TGI [20] was over 100 µM, the TGI [21] was over 100 µM and the TGI [22] was over 100 µM. It also gave a TGI [23] of over 100 µM, a TGI [25] of over 100 µM and a TGI [26] of over 100 µM. For the same molecule, the TGI [27] was over 100 µM, the TGI [28] was over 100 µM and the TGI [29] was over 100 µM. The TGI [30] was over 100 µM, the TGI [31] was over 100 µM and the TGI [32] was over 100 µM. It also gave a TGI [33] of over 100 µM, a TGI [2] of over 100 µM and a TGI [34] of over 100 µM. It also gave a TGI [35] of over 100 µM, a TGI [37] of over 100 µM and a TGI [38] of over 100 µM. For the same molecule, the TGI [39] was over 100 µM, the TGI [42] was over 100 µM and the TGI [43] was over 100 µM. For the same molecule, the TGI [44] was over 100 µM, the TGI [45] was over 100 µM and the TGI [46] was over 100 µM. It also gave a TGI [47] of over 100 µM, a TGI [48] of over 100 µM and a TGI [50] of over 100 µM. The TGI [57] was over 100 µM, the TGI [51] was over 100 µM and the TGI [55] was over 100 µM. The TGI [56] was over 100 µM.
